Patent US6376670B1, “Quinoline-indole antimicrobial agents, uses and compositions related thereto” (Sepracor Inc., priority 1997, dated 2002)
Read-outs that look alike come from different tables or passages of the source.

Assays:
Experiment in all cases: Determination of MIC values (BHI broth, 96 well microtiter plate)
Type in all cases: cell-based
[1] = tested on: vancomycin-resistant Enterococcus spp. (VRE); settings: Enterococcus, VRE, BHI broth, read-out: MIC VREF
Procedure, shortened: (§1)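 MIC is read as the lowest drug concentration showing no observable growth after roughly 16 hours at 37° C in approx. 7-10% CO2. Testing used BHI broth containing compound at 0.39–25 µg/mL final, inoculated with 10^5 to 10^6 cells/mL.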

Streptococcus pneumoniae = settings: Streptococcus pneumoniae, BHI broth, read-out: MIC S. pneu
Procedure, shortened: as §1

[2] = tested on: methicillin-resistant Staphylococcus aureus (MRSA); settings: Staphylococcus aureus, MRSA, BHI broth, read-out: MIC MRSA
Procedure, shortened: as §1

[3] = 16 h, 37° C., overnight (about 16 hours)
[4] = 37° C., overnight (about 16 hours)

Structure (SMILES) | MIC ([1]; VREF, overnight 37° C.) | MIC (Streptococcus pneumoniae; S. pneu, overnight 37° C.) | MIC ([2]; overnight 37° C.) | MIC ([1]; 16 h, 37° C., about 16 hours) | MIC (Streptococcus pneumoniae; 37° C., about 16 hours) | MIC ([2]; 16 h, 37° C., about 16 hours) | further results
Clc1ccc2nc(-c3c[nH]c4cccc(Cl)c34)ccc2c1 [Example 201] | < 25 µg/mL | < 7 µg/mL | < 7 µg/mL |  |  |  | 
Cn1cc(-c2cc(C(=O)NCCN)c3ccc(F)cc3n2)c2cc(Br)ccc21 [Example 325] | < 7 µg/mL | < 7 µg/mL | < 7 µg/mL |  |  |  | 
COc1ccc2nc(-c3c(C)[nH]c4ccc(C)cc34)ccc2c1 [Example 431] |  |  |  | > 25 µg/mL | > 25 µg/mL | > 25 µg/mL | 
NCCNC(=O)c1cc(-c2c[nH]c3ccc(Br)cc23)nc2cc(Cl)c(C#CCNCCc3ccccc3)cc12 [Example 530] |  |  |  | < 7 µg/mL | < 7 µg/mL | < 7 µg/mL | 
NCc1ccc(CNC(=O)c2cc(-c3c[nH]c4ccc(Cl)cc34)nc3ccc(Br)cc23)cc1 [Example 229] | < 7 µg/mL | < 7 µg/mL | < 7 µg/mL |  |  |  | 
Cc1ccc2nc(-c3c[nH]c4c(C)cccc34)ccc2c1 [Example 467] |  |  |  | > 25 µg/mL | > 25 µg/mL | > 25 µg/mL | 
NCCNC(=O)c1cc(-c2c[nH]c3ccc(Br)cc23)nc2ccc(Br)cc12 [Example 285] | < 7 µg/mL | < 7 µg/mL | < 7 µg/mL |  |  |  | 
Cc1cc2nc(-c3c[nH]c4ccc(Br)cc34)cc(C(=O)NCc3ccc(CN)cc3)c2cc1C [Example 118] |  |  |  |  |  |  | MIC [1, 3]: < 7 µg/mL; MIC (Streptococcus pneumoniae; [4]): < 7 µg/mL; MIC [2, 3]: < 7 µg/mL
Brc1ccc2[nH]cc(-c3nc4ccc(C#CCN5CCCCC5)cc4c4c3CCO4)c2c1 [Example 517] |  |  |  | > 25 µg/mL | < 7 µg/mL | < 7 µg/mL | 
NCCNC(=O)c1cc(-c2c[nH]c3ccc(Br)cc23)nc2c(F)cccc12 [Example 319] | < 25 µg/mL | < 7 µg/mL | < 7 µg/mL |  |  |  | 
Clc1ccc2nc(-c3c[nH]c4ccc(Br)cc34)c3c(c2c1)OCC3 [Example 448] |  |  |  | > 25 µg/mL | < 25 µg/mL | < 7 µg/mL | 
Cc1cccc2ccc(-c3c[nH]c4cc(Cl)ccc34)nc12 [Example 410] |  |  |  | > 25 µg/mL | < 25 µg/mL | < 25 µg/mL | 
NCc1ccc(CNC(=O)c2cc(-c3c[nH]c4ccc(Br)cc34)nc3cc(Cl)c(I)cc23)cc1 [Example 158] |  |  |  |  |  |  | MIC [1, 3]: < 7 µg/mL; MIC (Streptococcus pneumoniae; [4]): < 7 µg/mL; MIC [2, 3]: < 7 µg/mL
Cc1[nH]c2ccc(Cl)cc2c1-c1cc(Cl)c2ccc(Cl)cc2n1 [Example 473] |  |  |  | < 25 µg/mL | < 7 µg/mL | < 7 µg/mL | 
NCc1ccc(CNC(=O)c2cc(-c3c[nH]c4ccc(Br)cc34)nc3cc(F)ccc23)cc1 [Example 254] | < 7 µg/mL | < 7 µg/mL | < 7 µg/mL |  |  |  | 
NCCNC(=O)c1cc(-c2c[nH]c3ccc(Br)cc23)nc2ccc(C#CCN3CC=CCC3)cc12 [Example 526] |  |  |  | < 7 µg/mL | < 7 µg/mL | < 7 µg/mL | 
NCC(O)CNC(=O)c1cc(-c2c[nH]c3ccc(Br)cc23)nc2ccc(C#CCN3CCCCC3)cc12 (stereo not drawn) [Example 534] |  |  |  | < 7 µg/mL | < 7 µg/mL | < 7 µg/mL | 
Cc1cccc2ccc(-c3c[nH]c4ccc(Br)cc34)nc12 [Example 422] |  |  |  | > 25 µg/mL | > 25 µg/mL | > 25 µg/mL | 
CC(C)(C)NC(=O)NCc1cc(-c2c[nH]c3ccc(Br)cc23)nc2cc(Cl)ccc12 [Example 521] |  |  |  | > 25 µg/mL | < 7 µg/mL | < 7 µg/mL | 
Cn1cc(-c2cc(C(=O)NCc3cccc(CN)c3)c3ccccc3n2)c2cc(Br)ccc21 [Example 227] | < 7 µg/mL | < 7 µg/mL | < 7 µg/mL |  |  |  | 
NCC1CCC(CNC(=O)c2cc(-c3c[nH]c4ccc(Br)cc34)nc3ccc(Br)cc23)CC1 (stereo not drawn) [Example 124] |  |  |  |  |  |  | MIC [1, 3]: < 7 µg/mL; MIC (Streptococcus pneumoniae; [4]): < 7 µg/mL; MIC [2, 3]: < 7 µg/mL
Cn1cc(-c2cc(C(=O)NCC3CCC(CN)CC3)c3cc(I)ccc3n2)c2cc(Br)ccc21 (stereo not drawn) [Example 357] | < 7 µg/mL | < 7 µg/mL | < 7 µg/mL |  |  |  | 
NCc1ccc(CNC(=O)c2cc(-c3c[nH]c4ccc(Br)cc34)nc3ccc(C#CCN4CCCC4)cc23)cc1 [Example 238] | < 25 µg/mL | < 7 µg/mL | < 7 µg/mL |  |  |  | 
Cc1cccc2ccc(-c3c[nH]c4cc(F)ccc34)nc12 [Example 423] |  |  |  | > 25 µg/mL | > 25 µg/mL | > 25 µg/mL | 
NCc1ccc(CNC(=O)c2cc(-c3c[nH]c4ccc(Br)cc34)nc3cc(Cl)cc(Cl)c23)cc1 [Example 209] | < 7 µg/mL | < 7 µg/mL | < 7 µg/mL |  |  |  | 
CC(C)N(CC#Cc1ccc2nc(-c3cn(C)c4ccc(Br)cc34)cc(C(=O)NCCN)c2c1)C(C)C [Example 408] |  |  |  | < 7 µg/mL | < 7 µg/mL | < 7 µg/mL | 
CN(C)CCN(C)C(=O)c1cc(-c2c[nH]c3ccc(Br)cc23)nc2cc(Cl)c(C#CCN3CCCCC3)cc12 [Example 512] |  |  |  | < 7 µg/mL | < 7 µg/mL | < 7 µg/mL | 

Structure (SMILES) | MIC ([1]; VREF, overnight 37° C.) | MIC (Streptococcus pneumoniae; S. pneu, overnight 37° C.) | MIC ([2]; overnight 37° C.) | MIC ([1]; 16 h, 37° C., about 16 hours) | MIC (Streptococcus pneumoniae; 37° C., about 16 hours) | MIC ([2]; 16 h, 37° C., about 16 hours) | further results
Cc1ccc2nc(-c3c[nH]c4ccc(Cl)cc34)ccc2c1 [Example 441] |  |  |  | > 25 µg/mL | > 25 µg/mL | > 25 µg/mL | 
NCc1ccc(CNC(=O)c2cc(-c3c[nH]c4ccc(Br)cc34)nc3cc(C#CCN4CCSCC4)ccc23)cc1 [Example 270] | < 25 µg/mL | > 25 µg/mL | < 25 µg/mL |  |  |  | 
OCc1cc(-c2c[nH]c3ccc(Br)cc23)nc2ccc(F)cc12 [Example 443] |  |  |  | < 25 µg/mL | < 7 µg/mL | < 7 µg/mL | 
Cc1ccc2c(C(=O)NCc3ccc(CN)cc3)cc(-c3c[nH]c4ccc(Br)cc34)nc2c1 [Example 161] |  |  |  |  |  |  | MIC [1, 3]: < 7 µg/mL; MIC (Streptococcus pneumoniae; [4]): < 7 µg/mL; MIC [2, 3]: < 7 µg/mL
Cn1cc(-c2cc(C(=O)NCc3ccc(CN)cc3)c3cc(C#CCNCCc4ccc(Cl)cc4)ccc3n2)c2cc(Br)ccc21 [Example 390] | < 7 µg/mL | < 7 µg/mL | < 25 µg/mL |  |  |  | 
COc1ccc2nc(-c3c(C)[nH]c4ccc(Cl)cc34)ccc2c1 [Example 429] |  |  |  | > 25 µg/mL | < 7 µg/mL | < 7 µg/mL | 
NCc1ccc(CNC(=O)c2cc(-c3c[nH]c4ccc(Cl)cc34)nc3cc(Br)ccc23)cc1 [Example 230] | < 7 µg/mL | < 7 µg/mL | < 7 µg/mL |  |  |  | 
c1ccc2nc(-c3c[nH]c4ccccc34)ccc2c1 [Example 163] |  |  |  |  |  |  | MIC [1, 3]: > 25 µg/mL; MIC (Streptococcus pneumoniae; [4]): > 25 µg/mL; MIC [2, 3]: < 25 µg/mL
Cc1ccc2ccc(-c3c[nH]c4cc(F)ccc34)nc2c1 [Example 478] |  |  |  | > 25 µg/mL | > 25 µg/mL | > 25 µg/mL | 
Cc1ccc2[nH]cc(-c3ccc4cccc(C)c4n3)c2c1 [Example 411] |  |  |  | > 25 µg/mL | > 25 µg/mL | > 25 µg/mL | 
NCc1ccc(CNC(=O)c2cc(-c3c[nH]c4ccccc34)nc3ccc(I)cc23)cc1 [Example 159] |  |  |  |  |  |  | MIC [1, 3]: < 25 µg/mL; MIC (Streptococcus pneumoniae; [4]): < 25 µg/mL; MIC [2, 3]: < 7 µg/mL
Cc1ccc2nc(-c3c(C)[nH]c4ccc(C)cc34)ccc2c1 [Example 439] |  |  |  | > 25 µg/mL | > 25 µg/mL | > 25 µg/mL | 
COc1ccc2nc(-c3c(C)[nH]c4ccccc34)ccc2c1 [Example 449] |  |  |  | > 25 µg/mL | > 25 µg/mL | > 25 µg/mL | 
NCCNC(=O)c1cc(-c2c[nH]c3ccc(Br)cc23)nc2cc(Cl)c(C#CCN3CC=CCC3)cc12 [Example 529] |  |  |  | < 7 µg/mL | < 7 µg/mL | < 7 µg/mL | 
NCc1ccc(CNC(=O)c2cc(-c3c[nH]c4cc(F)ccc34)nc3cc(F)ccc23)cc1 [Example 493] |  |  |  | < 25 µg/mL | < 25 µg/mL | < 25 µg/mL | 
NCc1ccc(CNC(=O)c2cc(-c3c[nH]c4ccc(Br)cc34)nc3c(Cl)cc(I)cc23)cc1 [Example 102] |  |  |  |  |  |  | MIC [1, 3]: < 7 µg/mL; MIC (Streptococcus pneumoniae; [4]): < 7 µg/mL; MIC [2, 3]: < 7 µg/mL
CN(C)CCNCC#Cc1ccc2nc(-c3cn(C)c4ccc(Br)cc34)cc(C(=O)NCc3ccc(CN)cc3)c2c1 [Example 392] | < 7 µg/mL | < 7 µg/mL | < 7 µg/mL |  |  |  | 
OCc1[nH]c2ccc(Cl)cc2c1-c1cc(Cl)c2ccccc2n1 [Example 470] |  |  |  | > 25 µg/mL | > 25 µg/mL | > 25 µg/mL | 
COc1ccc2nc(-c3c(C)[nH]c4ccc(OC)cc34)ccc2c1 [Example 428] |  |  |  | > 25 µg/mL | > 25 µg/mL | > 25 µg/mL | 
Fc1ccc2c(-c3ccc4cc(Cl)ccc4n3)c[nH]c2c1 [Example 288] | < 7 µg/mL | < 7 µg/mL | < 7 µg/mL |  |  |  | 
Cn1cc(-c2cc(C(=O)NCC3CCCC(CN)C3)c3cc(I)ccc3n2)c2cc(Br)ccc21 (stereo not drawn) [Example 358] | < 7 µg/mL | < 7 µg/mL | < 7 µg/mL |  |  |  | 
Clc1ccc2c(Cl)cc(-c3c[nH]c4ccc(OCc5ccccc5)cc34)nc2c1 [Example 477] |  |  |  | > 25 µg/mL | < 7 µg/mL | < 7 µg/mL | 
O=C(O)c1cc(-c2c[nH]c3ccc(Br)cc23)nc2cc(F)cc(Cl)c12 [Example 297] | < 25 µg/mL | < 25 µg/mL | < 25 µg/mL |  |  |  | 
Cc1cc2nc(-c3c[nH]c4ccc(Br)cc34)cc(C(=O)NCC3CCCC(CN)C3)c2cc1C (stereo not drawn) [Example 127] |  |  |  |  |  |  | MIC [1, 3]: < 7 µg/mL; MIC (Streptococcus pneumoniae; [4]): < 7 µg/mL; MIC [2, 3]: < 7 µg/mL
Cc1ccc2nc(-c3c[nH]c4ccccc34)ccc2c1 [Example 481] |  |  |  | > 25 µg/mL | > 25 µg/mL | > 25 µg/mL | 
NCC1CCCC(CNC(=O)c2cc(-c3c[nH]c4ccc(Br)cc34)nc3cc(Cl)c(I)cc23)C1 (stereo not drawn) [Example 245] | < 7 µg/mL | < 7 µg/mL | < 7 µg/mL |  |  |  | 
